This passage reports melting point results from a melting point compilation (Tetko et al.; mined from patent text by program, amines drawn as free bases though some values may be those of a salt).

By melting point is commonly meant the temperature of the solid-liquid transition.

In the case of `C#CCn1c(C(F)(F)F)c(C(O)C#C)c2ccccc21` (racemic), the melting point stood at 98 °C.

The compound `O=C(CCCO)Nc1cccc(-c2cccc3cc(Cc4cccc(C(F)(F)F)c4)oc23)c1` registered a melting point of 134 to 135 °C.

Turning to `CCCCCCCCCCCOc1cccc(C(=O)O)c1`, the melting point worked out at 88 °C.

For `CC(=O)Nc1ccc(C(=O)SC[C@@H](C)C(=O)N2CSC[C@H]2C(=O)O)cc1`, the melting point lay within 206 to 207 °C.

In the case of `S=c1nc2c(Cl)cccn2c(=S)n1-c1ncccc1Cl`, the melting point lay within 120 to 122 °C.

Regarding `Clc1ccc(-c2csc(NCc3cnc(NCc4ccccc4)s3)n2)cc1`, the melting point lay in the range of 105 to 106 °C.

Consider `Clc1ccc2c(c1)-c1[nH]ncc1CS2`, for which the melting point was 205 to 206 °C.

Compound `CC(C)(C)C1=NN(c2ccc(C(=O)O)cc2)C(c2cccc(Br)c2)C1` (centres undefined) registered a melting point of 216 °C.

Compound `Cc1cc(C)nc(NC(=O)NS(=O)(=O)c2c([N+](=O)[O-])ccc3c2CCC3)n1` gave a melting point of 172 °C.

For `CN1CCC(=C(c2ccn(C)c2)c2ncc[nH]2)CC1`, the melting point turned out to be 155 °C.

For the compound `O=C(NCCCCN1CCC(c2ccc3c(c2)CCCC3)CC1)c1ccc(NC(=O)c2ccc(Cl)cc2)cc1`, the melting point was 285 °C.

On to `CCC1(C)CC(NC(=O)C(=O)NC2CC(C)(CC)N(C(C)=O)C(C)(CC)C2C)C(C)C(C)(CC)N1C(C)=O` (centres undefined), for which the melting point amounted to 164 °C.

As for `C=CC(=O)Oc1ccc(Cl)c2c1Sc1ccccc1C2`, the melting point was 164 to 165 °C.

As for `C#CCOc1cc(O)c2c(c1)OC(C)(C)CC2=O`, the melting point was 122 to 124 °C.

`COC(=O)[C@H](CS)NC(=O)[C@@H]1CCC(=S)N1` returned a melting point of 177 to 178 °C.

Consider `Cn1nc2c(oc3ccccc32)c1NCC(F)(F)F`, for which the melting point was 120 to 121 °C.

Compound `COc1cccc(F)c1COC1(C(F)(F)F)CN(C)C(=O)Nc2ccc(Cl)cc21` (centres undefined) came in with a melting point of 172 to 174 °C.

In the case of `CC1CC(=O)c2c(nc3c(c2N)c2ccccc2n3C)C1` (centres undefined), the melting point was in the range of 216 to 217 °C.

In turn, `C=CC(=O)NCCNC(=O)C=C` registered a melting point of 150 to 155 °C.

`Cc1nc2c3c(c(C(=O)N(C)CC(C)O)cc2n1C)CCC1(Cc2ccccc2C1)N3` (centres undefined) came in with a melting point of 258 to 259 °C.

Regarding `CC(=O)Nc1nc(=O)n(C(=O)c2ccc(C)cc2)cc1F`, the melting point fell in the range of 147 to 148 °C.

Consider `CSC(C(=O)O)c1cc(=O)oc2cc(O)c(O)cc12` (centres undefined), for which the melting point was 254 to 256 °C.

Compound `NCCCNc1nc2c(NCc3ccccc3)ncnc2n1C1OC(CO)C(O)C1O` (centres undefined) yielded a melting point of 72 to 76 °C.

`O=C(O)c1ccc2c(Br)n[nH]c2c1` had a melting point of over 250 °C.

The compound `CCCCc1nn(-c2ccccc2C(F)(F)F)c(=O)n1Cc1ccc(-c2ccccc2S(=O)(=O)NS(=O)(=O)C(F)(F)F)cc1` came in with a melting point of 132 to 134 °C.

`COC(=O)CCc1ccc(OCCN(C)c2nc3ccccc3o2)cc1`: the melting point was 51 to 52 °C.

With `CCc1c(C(=O)C(N)=O)c2c([N+](=O)[O-])cccc2n1Cc1ccccc1`, the melting point lay within 207 to 208 °C.

`N=C(N)Nc1ncc(Cl)c2ccc(S(=O)(=O)N(CCOC3CCCCO3)C3(C(=O)O)CCCC3)cc12` (centres undefined) came in with a melting point of 281 to 289 °C.

Take `Cc1ccc(CS(=O)c2nc3cc4c(cc3[nH]2)CCC4)nc1` (centres undefined): the melting point lay in the range of 190 to 191 °C.

For `OC(Cn1cncn1)(c1ccc(F)cc1)c1ccccc1Cl` (centres undefined), the melting point was 115 to 116 °C.

For `CN(C)c1cccc(CN2C(=O)C3(COc4cc5c(cc43)OCCO5)c3ccccc32)n1` (centres undefined), the melting point lay in the range of 196 to 197 °C.

The compound `CC(C)CC(NC(=O)Cc1ccc2ccccc2c1)C(=O)NC(Cc1ccccc1)C(=O)CSCc1ccco1` (centres undefined) yielded a melting point of 123 to 125 °C.

Consider `O=C(O)CCCCCCC1(CCCCCCC(=O)O)C(=O)NC(=O)N1CCC(O)C1CCCCC1` (centres undefined), for which the melting point was in the range of 116 to 118 °C.

In turn, `CC(C)(C)NC(=O)C(Br)CCl` (centres undefined) displayed a melting point of 163 to 168 °C.

Turning to `CC(C)c1ccc(-c2ncc(-c3cccc(C(=O)O)c3)s2)cc1`, the melting point is 237 to 239 °C.

Consider `CC1=NN=C(c2ccc([N+](=O)[O-])cc2)c2cc(Br)ccc2C1`, for which the melting point was in the range of 200 to 205 °C.

Compound `O=C(O)C(=O)Cc1ccc(-c2ccccc2)cc1` displayed a melting point of 215 to 218 °C.

`Fc1ccc(N2CCN(CCCOc3cccc(-c4nnco4)c3)CC2)cc1` returned a melting point of 105 to 106 °C.

Take `C/C(=C\C(=O)NC1CC1)c1cccc(F)c1`: the melting point came to 119 °C.

The compound `O=C(O)Cc1c(C(=O)c2ccccc2)[nH]c2cccc(Cl)c12` returned a melting point of 206 to 209 °C.

Take `Cc1c(CC(C)(C)C(=O)O)n(Cc2ccc(Cl)cc2)c2ccc(OCc3ccc4ccccc4c3)cc12`: the melting point worked out at 152 °C.

For `CCCCn1c2ccc(C#N)cc2c2cc(C#N)ccc21`, the melting point lay in the range of 215 to 217 °C.

The compound `O=C(C=Cc1ccc(OC(F)(F)F)cc1)C=Cc1ccc(OC(F)(F)F)cc1` displayed a melting point of 112 to 115 °C.

`Cc1cn2c(=O)c3cc(S(=O)(=O)Cl)ccc3nc2s1` yielded a melting point of 206 to 209 °C.

As for `Cc1ccc(-c2cc(CN3C(=O)c4ccccc4C3=O)c(=O)n(CC(C)C)n2)cc1`, the melting point lay in the range of 222 to 224 °C.

With `CSc1nc(-c2ccc(S(C)(=O)=O)cc2)n(-c2ccc(C)cc2)c(=O)c1C#N`, the melting point was in the range of 242 to 244 °C.

`CC(CO)c1ccc2cc(OCc3ccc4ccccc4n3)ccc2c1` (centres undefined) gave a melting point of 129 to 131 °C.

`O=S(=O)(NC(=S)NC1CCCCC1)c1cnccc1NC1CCCCCC1`: the melting point fell in the range of 195 to 197 °C.

Take `Cc1cc(C)nc(NC(=O)c2ccncc2)c1`: the melting point came out at 142 °C.

As to `COCCOc1ccc(CCCNS(=O)(=O)c2ccc(Cl)cc2)c(Oc2ncc(C(F)(F)F)cc2Cl)c1`, the melting point was 111 to 113 °C.

As to `N[C@]1(C(=O)O)C=C[C@H]2[C@H](C(=O)O)[C@H]21`, the melting point is over 250 °C.

As for `CCOC(=O)C(=NOC(C)C)c1csc(N)n1`, the melting point was 162 to 164 °C.

With `COc1cc(NC(=O)OC(C)(C)C)c(NC(=O)CC(=O)c2cccc(C#N)c2)cc1C#Cc1ccccc1`, the melting point was 169 °C.

The compound `COC(=O)C1C(=O)Nc2ccc(C(F)(F)F)cc2CC1c1ccc(OC)cc1` (centres undefined) displayed a melting point of 161 to 163 °C.

For `COC1C(N2CCCC2=O)c2sccc2OC1(C)C` (centres undefined), the melting point fell in the range of 117 to 118 °C.

The compound `Cn1ncnc1COc1nn2c(-c3ccccc3F)nnc2cc1C1(F)CCC1` came in with a melting point of 154 to 162 °C.

Turning to `CCCc1oc2ccc([N+](=O)[O-])cc2c1C(=O)c1ccc(OC)cc1`, the melting point was 73 °C.

Take `CC1CC2C3CCC4=CC(=O)C=CC4(C)C3C(O)CC2(C)C1C(=O)CI` (centres undefined): the melting point amounted to 153 °C.

In turn, `Cc1c(-c2ccc(O)cc2)sc(C#N)c1-c1ccc(O)cc1` returned a melting point of 282 to 284 °C.

As to `CC(=O)NC1Cc2cccc3cccc(c23)C1O` (centres undefined), the melting point fell in the range of 205 to 206 °C.

`Cc1ccc2nc(C3(c4ccc(S(N)(=O)=O)cc4)C=C(C(F)(F)F)NN3)oc2c1` (centres undefined): the melting point lay in the range of 260 to 261 °C.

`CN(C)CCNc1ccc(O)c2c1C(=O)c1c(Cl)ccc(Cl)c1C2=O` had a melting point of 125 to 130 °C.

`COc1nc(OC)c2cc(CBr)ccc2n1` had a melting point of 138 to 143 °C.

On to `Brc1cc2c(nc1-c1ccccc1)OCC2`, for which the melting point fell in the range of 83.5 to 85.5 °C.

In the case of `O=C1c2cc(O)ccc2OCC1Cc1ccncc1` (centres undefined), the melting point lay in the range of 188 to 190 °C.

Regarding `COc1c(OCCOc2ccc(C(C)(C)C)cc2)ccnc1C`, the melting point was in the range of 84 to 87 °C.

As to `CCS(=O)(=O)N(c1cc(-c2nsc(C(F)(F)F)c2Cl)c(Cl)cc1Cl)S(=O)(=O)CC`, the melting point fell in the range of 153 to 154 °C.

The compound `COc1ccc(C2CCOCC2)c2sc(-c3ncc[nH]3)nc12` registered a melting point of 220 to 224 °C.

Turning to `CCCCSc1nc(N(C)C(C)=O)c(C#N)s1`, the melting point was 40 °C.

On to `CCOC1(c2ccccc2)CCN(C)CC1O` (centres undefined), for which the melting point fell in the range of 145 to 146 °C.

In turn, `COc1cc2c3c(Br)cc(OC)c(OC)c3n(C(=O)c3ccc(C(C)(C)C)cc3)c2cc1OC` gave a melting point of 136 to 138 °C.

In turn, `O=C1NC(=O)c2c1c(I)cc1[nH]c3ccc(O)cc3c21` registered a melting point of over 350 °C.

As to `CC1(C)CC(=Cc2nc3cc(O)ccc3o2)CC(C)(C)C1`, the melting point is 160 to 162 °C.

`N#Cc1cnc2c(sc3ccccc32)c1Nc1ccc(Cl)cc1Cl` came in with a melting point of 260 to 262 °C.

Turning to `O=[N+]([O-])C=C1NCCN1c1ccc(Cl)nc1`, the melting point was 201 °C.

Consider `CC(C)N(CCC(C(N)=O)(c1ccccc1)C1CCCCN1)C(C)C` (centres undefined), for which the melting point lay in the range of 107 to 108 °C.

`CC1(c2ccc(OCc3ccccc3)c(C=O)c2)OCCO1` gave a melting point of 78 to 80 °C.

`O=C1N(Cc2cnc(N3CCCCC3)s2)c2ccccc2C12COc1cc3c(cc12)OCO3` (centres undefined) registered a melting point of 195 to 197 °C.

For the compound `COc1ccncc1Nc1nc(N2CCOCC2)nc(-n2c(C(F)F)nc3c(OC)cccc32)n1`, the melting point lay within 239 to 241 °C.

In the case of `CC1(C)CCc2c(N3CCSCC3)nc3sc4c(NCc5ccncc5)ncnc4c3c2C1`, the melting point amounted to 237 °C.

For `Cc1c(-c2ccc(O)cc2)sc(C=O)c1-c1cccc(O)c1`, the melting point fell in the range of 208 to 210 °C.

For the compound `COC(=O)[C@H](Cc1ccccc1)NC(=O)CCC#N`, the melting point is 71 to 72 °C.

In the case of `CCCCc1nc2c(N)nc3ccccc3c2n1CCCCNS(=O)(=O)Cc1ccccc1`, the melting point lay within 197 to 200 °C.

In turn, `COc1cc(C(=O)N2CCC(CCN3CCC(C(=O)c4nc5ccccc5n4Cc4ccc(C(=O)O)cc4)CC3)(c3ccccc3)C2)cc(OC)c1OC` (centres undefined) returned a melting point of 173 to 190 °C.

`CONC(=O)Nc1cc(C(C)(C)C)on1` yielded a melting point of 145 to 148 °C.

With `Cc1oc2cc(N)ccc2c(=O)c1C`, the melting point lay in the range of 224 to 226 °C.

As for `ON=C1OC2C=CC1CC2` (centres undefined), the melting point lay within 153 to 154 °C.

`COc1ccc(-c2cc3nc(N4CCCCC4)c4ccccc4c3nn2)cc1` displayed a melting point of 168 to 169 °C.

Take `CSc1cc(C)nc(SC)c1NC(=O)CSc1nc2ccccc2o1`: the melting point was in the range of 203 to 205 °C.
